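The compound was tested at five concentrations on cells cultured in 96-well plates, with a 48-hour exposure period. GI50: concentration for 50% inhibition of growth. TGI denotes the concentration required for complete inhibition of growth.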
Experiments:
Test in all cases: NCI tumour cell line growth inhibition, 48 h
HCT-15 colon = tested on: HCT-15 colon
MDA-MB-435 = tested on: MDA-MB-435
HOP-62 NSCLC = tested on: HOP-62 NSCLC
OVCAR-4 ovarian = tested on: OVCAR-4 ovarian
SF-539 CNS = tested on: SF-539 CNS
K-562 leukemia = tested on: K-562 leukemia
CCRF-CEM leukemia = tested on: CCRF-CEM leukemia
OVCAR-5 ovarian = tested on: OVCAR-5 ovarian
PC-3 prostate = tested on: PC-3 prostate
SK-MEL-5 melanoma = tested on: SK-MEL-5 melanoma

SMILES: CC(C)CCN[C@@H]1CCc2cc(O)c(N3CC(=O)NS3(=O)=O)c(F)c2C1
- GI50 (HCT-15 colon): > 100 µM
- TGI (HCT-15 colon): > 100 µM
- GI50 (MDA-MB-435): > 100 µM
- TGI (MDA-MB-435): > 100 µM
- GI50 (HOP-62 NSCLC): > 100 µM
- TGI (HOP-62 NSCLC): > 100 µM
- GI50 (OVCAR-4 ovarian): > 100 µM
- TGI (OVCAR-4 ovarian): > 100 µM
- GI50 (SF-539 CNS): 20.3 µM
- TGI (SF-539 CNS): > 100 µM
- GI50 (K-562 leukemia): > 100 µM
- TGI (K-562 leukemia): > 100 µM
- GI50 (CCRF-CEM leukemia): > 100 µM
- TGI (CCRF-CEM leukemia): > 100 µM
- GI50 (OVCAR-5 ovarian): > 100 µM
- TGI (OVCAR-5 ovarian): > 100 µM
- GI50 (PC-3 prostate): > 100 µM
- TGI (PC-3 prostate): > 100 µM
- GI50 (SK-MEL-5 melanoma): > 100 µM
- TGI (SK-MEL-5 melanoma): > 100 µM

Reference: PubChem BioAssay (NCI)
